According to US20220249343A1, “COSMETIC COMPOSITION INCLUDING 5-BENZYLAMINOSALICYLIC ACID DERIVATIVE, AND TOPICAL USE THEREOF” (GNT PHARMA CO., LTD., priority 2019, published 2022):

System: human skin
Experiment: Safety assessment for human skin: patch test
Format: in vivo
Conditions: human volunteers
Experimental: Safety of Compound 2 was assessed by a patch test of 33 human volunteers. At this time, a patch treated with a composition containing 0.0544 mg/ml of compound 2 was attached to the test site, after 24 hours, the patch was removed and the location was marked. After 1 hour, a degree of reactivity was determined and recorded.
The skin reactivity was calculated by multiplying the average of evaluated values for 33 subjects by 25, while the skin irritation index was determined by dividing the above calculated value by the number of evaluations.
The degree of skin irritation of the test substance was determined with reference to the skin irritation index table (Table 1).

SMILES: O=C(O)c1cc(NCCc2ccc(C(F)(F)F)cc2)ccc1O [Compound 2]
- adverse skin reactions during the period of use: no reports of specific adverse skin reactions
- findings on physical examination by a dermatologist: no abnormal findings were observed
